Read-outs that look alike come from different tables or passages of the source. Square brackets hold non-standard residues; d marks the D form. Peptide text beside a SMILES is read from it. * marks the point of attachment. Adamantane1carbonyl = O=C(C12CC3CC(CC(C3)C1)C2)*; NH((S)CH(Me)CH2NMe2) = C[C@@H](CN(C)C)N*; Gly(octyl) = CCCCCCCC[C@H](N)C(=O)O; Oxazole4CO(2-Me) = Cc1nc(C(=O)*)co1; Thiophene2carbonyl = O=C(c1cccs1)*; X4 = COc1ccc2cc(C(=O)*)c(=O)oc2c1; hCha = N[C@@H](CCC1CCCCC1)C(=O)O; X6 = O=C(c1ccnc2cc(Cl)ccc12)*; X12 = CN(C)CC1(N*)CCCC1; Aib = CC(C)(N)C(=O)O; X11 = CN(CCN*)CC(F)F; Bz = O=C(c1ccccc1)*; βAla = NCCC(=O)O
How the values were obtained:
[1] = test system: axenic Leishmania donovani MHOM-ET-67/L82 amastigotes; assay: In vitro antiprotozoal assay, axenic amastigotes; type: cell-based
Description: (§1) The testing of the inventive compounds against Leishmania donovani (strain MHOM/ET/67/L82) was performed in 96 well plates at concentrations in serial dilutions. Tests were done in triplicate.

[2] = test system: intracellular Leishmania donovani MHOM-ET-67/L82 amastigotes; assay: In vitro antiprotozoal assay, intracellular amastigotes; type: cell-based
Description: as §1

[3] = Cytotoxicity assay (Alamar Blue) on L6-cells; type: cell-based, rat
Description: Tests were done in triplicate.
The plates were incubated for additional 2 h.

[4] = axenic amastigotes, read-out: L.don.ax. IC50
[5] = intracellular amastigotes, read-out: L.don.InMac IC50
[6] = rat myoblast L6 cells, read-out: Cytotox L6 IC50

IC50 ([1]; Leishmania donovani, reference compound, L.don.ax., read-out: IC50 Concurrent)	IC50 ([2]; Leishmania donovani, reference compound, L.don.InMac, read-out: IC50 Concurrent)	Compound	IC50 [1, 4]	IC50 [2, 5]	IC50 at 68 h [3, 6]	IC50 at 68 h ([3]; rat)
–	–	CCCCCCCC[C@H](NC(=O)[C@@H]1CCCN1C(=O)c1ccccc1)C(=O)N[C@@H](CC(C)C)C(=O)NC(C)(C)C(=O)N[C@@H](CC(C)C)C(=O)N[C@@H](CC(C)C)C(=O)NC(C)(C)C(=O)NC(C)(C)C(=O)NCCC(=O)N[C@@H](C)CN(C)C [Compound 5649, (2S)-2-{[(2S)-1-benzoylpyrrolidin-2-yl]formamido}-N-[(1S)-1-[(1-{[(1S)-1-{[(1S)-1-{[1-({1-[(2-{[(2S)-1-(dimethylamino)propan-2-yl]carbamoyl}ethyl)carbamoyl]-1-methylethyl}carbamoyl)-1-methylethyl]carbamoyl}-3-methylbutyl]carbamoyl}-3-methylbutyl]carbamoyl}-1-methylethyl)carbamoyl]-3-methylbutyl]decanamide] (Bz-P[Gly(octyl)]L[Aib]LL[Aib][Aib][βAla]-{NH((S)CH(Me)CH2NMe2)})	3.5 nM	27.2 nM	274 nM	–
–	–	CCCCCCCC[C@H](NC(=O)[C@@H]1CCCN1C(=O)c1ccnc2cc(Cl)ccc12)C(=O)N[C@@H](CC(C)C)C(=O)NC(C)(C)C(=O)N[C@@H](CC(C)C)C(=O)N[C@@H](CC(C)C)C(=O)NC(C)(C)C(=O)NC(C)(C)C(=O)NCCC(=O)N[C@@H](C)CN(C)C [Compound 5768, (2S)-2-{[(2S)-1-(7-chloroquinoline-4-carbonyl)pyrrolidin-2-yl]formamido}-N-[(1S)-1-[(1-{[(1S)-1-{[(1S)-1-{[1-({1-[(2-{[(2S)-1-(dimethylamino)propan-2-yl]carbamoyl}ethyl)carbamoyl]-1-methylethyl}carbamoyl)-1-methylethyl]carbamoyl}-3-methylbutyl]carbamoyl}-3-methylbutyl]carbamoyl}-1-methylethyl)carbamoyl]-3-methylbutyl]decanamide] (X6-P[Gly(octyl)]L[Aib]LL[Aib][Aib][βAla]-{NH((S)CH(Me)CH2NMe2)})	33.5 nM	257 nM	–	627 nM
–	–	CCCCCCCC[C@H](NC(=O)[C@@H]1CCCN1C(=O)c1cc2ccc(OC)cc2oc1=O)C(=O)N[C@@H](CC(C)C)C(=O)NC(C)(C)C(=O)N[C@@H](CC(C)C)C(=O)N[C@@H](CC(C)C)C(=O)NC(C)(C)C(=O)NC(C)(C)C(=O)NCCC(=O)N[C@@H](C)CN(C)C [Compound 5769, (2S)-N-[(1S)-1-[(1-{[(1S)-1-{[(1S)-1-{[1-({1-[(2-{[(2S)-1-(dimethylamino)propan-2-yl]carbamoyl}ethyl)carbamoyl]-1-methylethyl}carbamoyl)-1-methylethyl]carbamoyl}-3-methylbutyl]carbamoyl}-3-methylbutyl]carbamoyl}-1-methylethyl)carbamoyl]-3-methylbutyl]-2-{[(2S)-1-(7-methoxy-2-oxo-2H-chromene-3-carbonyl)pyrrolidin-2-yl]formamido}decanamide] (X4-P[Gly(octyl)]L[Aib]LL[Aib][Aib][βAla]-{NH((S)CH(Me)CH2NMe2)})	8.1 nM	216 nM	–	423 nM
–	–	CCCCCCCC[C@H](NC(=O)[C@@H]1CCCN1C(=O)C12CC3CC(CC(C3)C1)C2)C(=O)N[C@@H](CC(C)C)C(=O)NC(C)(C)C(=O)N[C@@H](CC(C)C)C(=O)N[C@@H](CC(C)C)C(=O)NC(C)(C)C(=O)NC(C)(C)C(=O)NCCC(=O)N[C@@H](C)CN(C)C [Compound 5770, (2S)-2-{[(2S)-1-(adamantane-1-carbonyl)pyrrolidin-2-yl]formamido}-N-[(1S)-1-[(1-{[(1S)-1-{[(1S)-1-{[1-({1-[(2-{[(2S)-1-(dimethylamino)propan-2-yl]carbamoyl}ethyl)carbamoyl]-1-methylethyl}carbamoyl)-1-methylethyl]carbamoyl}-3-methylbutyl]carbamoyl}-3-methylbutyl]carbamoyl}-1-methylethyl)carbamoyl]-3-methylbutyl]decanamide] (Adamantane1carbonyl-P[Gly(octyl)]L[Aib]LL[Aib][Aib][βAla]-{NH((S)CH(Me)CH2NMe2)})	1 nM	338 nM	–	185 nM
–	–	CCCCCCCC[C@H](NC(=O)[C@@H]1CCCN1C(=O)c1cccs1)C(=O)N[C@@H](CC(C)C)C(=O)NC(C)(C)C(=O)N[C@@H](CC(C)C)C(=O)N[C@@H](CC(C)C)C(=O)NC(C)(C)C(=O)NC(C)(C)C(=O)NCCC(=O)N[C@@H](C)CN(C)C [Compound 5904, (2S)-N-[(1S)-1-[(1-{[(1S)-1-{[(1S)-1-{[1-({1-[(2-{[(2S)-1-(dimethylamino)propan-2-yl]carbamoyl}ethyl)carbamoyl]-1-methylethyl}carbamoyl)-1-methylethyl]carbamoyl}-3-methylbutyl]carbamoyl}-3-methylbutyl]carbamoyl}-1-methylethyl)carbamoyl]-3-methylbutyl]-2-{[(2S)-1-(thiophene-2-carbonyl)pyrrolidin-2-yl]formamido}decanamide] (Thiophene2carbonyl-P[Gly(octyl)]L[Aib]LL[Aib][Aib][βAla]-{NH((S)CH(Me)CH2NMe2)})	3.1 nM	11.4 nM	216 nM	–
–	–	CCCCCCCC[C@H](NC(=O)[C@@H]1CCCN1C(=O)c1coc(C)n1)C(=O)N[C@@H](CC(C)C)C(=O)NC(C)(C)C(=O)N[C@@H](CC(C)C)C(=O)N[C@@H](CC(C)C)C(=O)NC(C)(C)C(=O)NC(C)(C)C(=O)NCCC(=O)N[C@@H](C)CN(C)C [Compound 5905, (2S)-N-[(1S)-1-[(1-{[(1S)-1-{[(1S)-1-{[1-({1-[(2-{[(2S)-1-(dimethylamino)propan-2-yl]carbamoyl}ethyl)carbamoyl]-1-methylethyl}carbamoyl)-1-methylethyl]carbamoyl}-3-methylbutyl]carbamoyl}-3-methylbutyl]carbamoyl}-1-methylethyl)carbamoyl]-3-methylbutyl]-2-{[(2S)-1-(2-methyl-1,3-oxazole-4-carbonyl)pyrrolidin-2-yl]formamido}decanamide] ({Oxazole4CO(2-Me)}-P[Gly(octyl)]L[Aib]LL[Aib][Aib][βAla]-{NH((S)CH(Me)CH2NMe2)})	7.9 nM	13.1 nM	–	852 nM
–	–	CCCCCCCC[C@H](NC(=O)[C@@H]1CCCN1C(=O)c1coc(C)n1)C(=O)N[C@@H](CC(C)C)C(=O)NC(C)(C)C(=O)N[C@@H](CC(C)C)C(=O)N[C@@H](CC(C)C)C(=O)NC(C)(C)C(=O)NC(C)(C)C(=O)NCCC(=O)NC1(CN(C)C)CCCC1 [Compound 6254, (2S)-N-[(1S)-1-[(1-{[(1S)-1-{[(1S)-1-({1-[(1-{[2-({1-[(dimethylamino)methyl]cyclopentyl}carbamoyl)ethyl]carbamoyl}-1-methylethyl)carbamoyl]-1-methylethyl}carbamoyl)-3-methylbutyl]carbamoyl}-3-methylbutyl]carbamoyl}-1-methylethyl)carbamoyl]-3-methylbutyl]-2-{[(2S)-1-(2-methyl-1,3-oxazole-4-carbonyl)pyrrolidin-2-yl]formamido}decanamide] ({Oxazole4CO(2-Me)}-P[Gly(octyl)]L[Aib]LL[Aib][Aib][βAla]-X12)	2.5 nM	–	–	528 nM
–	–	Cc1nc(C(=O)N2CCC[C@H]2C(=O)N[C@@H](Cc2ccccc2)C(=O)N[C@@H](CC(C)C)C(=O)NC(C)(C)C(=O)N[C@@H](CC(C)C)C(=O)N[C@@H](CC(C)C)C(=O)NC(C)(C)C(=O)NC(C)(C)C(=O)NCCC(=O)NC2(CN(C)C)CCC2)co1 [Compound 6328, (2S)-N-(1-{[(1S)-1-{[(1S)-1-({1-[(1-{[2-({1-[(dimethylamino)methyl]cyclobutyl}carbamoyl)ethyl]carbamoyl}-1-methylethyl)carbamoyl]-1-methylethyl}carbamoyl)-3-methylbutyl]carbamoyl}-3-methylbutyl]carbamoyl}-1-methylethyl)-4-methyl-2-[(2S)-2-{[(2S)-1-(2-methyl-1,3-oxazole-4-carbonyl)pyrrolidin-2-yl]formamido}-3-phenylpropanamido]pentanamide] (HELM PEPTIDE1{[Cc1nc(C(=O)[*:2])co1].P.F.L.[Aib].L.L.[Aib].[Aib].[bAla].[CN(C)CC1(N[*:1])CCC1]}$$$$V2.0)	381 nM	–	–	8720 nM
–	–	Cc1nc(C(=O)N2CCC[C@H]2C(=O)N[C@@H](CCC2CCCCC2)C(=O)N[C@@H](CC(C)C)C(=O)NC(C)(C)C(=O)N[C@@H](CC(C)C)C(=O)N[C@@H](CC(C)C)C(=O)NC(C)(C)C(=O)NC(C)(C)C(=O)NCCC(=O)NCCN(C)CC(F)F)co1 [Compound 6488, (2S)-2-[(2S)-4-cyclohexyl-2-{[(2S)-1-(2-methyl-1,3-oxazole-4-carbonyl)pyrrolidin-2-yl]formamido}butanamido]-N-(1-{[(1S)-1-{[(1S)-1-({1-[(1-{[2-({2-[(2,2-difluoroethyl)(methyl)amino]ethyl}carbamoyl)ethyl]carbamoyl}-1-methylethyl)carbamoyl]-1-methylethyl}carbamoyl)-3-methylbutyl]carbamoyl}-3-methylbutyl]carbamoyl}-1-methylethyl)-4-methylpentanamide] ({Oxazole4CO(2-Me)}-P[hCha]L[Aib]LL[Aib][Aib][βAla]-X11)	429 nM	–	7180 nM	–
162 nM	162 nM	CCCCCCCCCCCCCCCCOP(=O)([O-])OCC[N+](C)(C)C [Miltefosine, reference compound]	–	–	–	–
